Data reported in patent publication US20080113938A1, “ACCELERATOR FOR MINERAL ABSORPTION AND USE THEREOF” (KABUSHIKI KAISHA HAYASHIBARA SEIBUTSU KAGAKU KENKYUJO, priority 2003, published 2008).
Marks after values point to notes of the source that are not given here.

Experiments:
[1] = test system: femur; experiment: Dry weight, ash, calcium, magnesium and phosphorus of the femur of rats; format: in vivo, Wister rats
Description: Forty of Wister rats weighing 110 to 120 g (five-weeks aged male, commercialized by Charles River Japan Inc., Yokohama, Japan) were bred with a feed containing ingredients (%) shown in Table 1 for one week in order to be familiarized. The familiarized rats were randomly divided into four groups with ten rats each. Each group was experimentally bred for eight weeks with either a feed without cyclic tetrasaccharide shown in Table 1 (hereinafter, it is called as “basic feed”), or another feed of basic feed supplemented with 1%, 2% or 5% on a dry solid basis, of cyclic tetrasaccharide in a crystalline anhydrous powder form with a purity of 99.5%, prepared in the following Example A-3. These basic feed and three kinds of feeds with cyclic tetrasaccharide were prepared to contain 44.75% of the total amount of cyclic tetrasaccharide and corn starch in each feed. From one week before the end of the breeding test, in order to determine the metabolism of calcium, magnesium, iron, sodium, potassium and phosphorus (hereinafter, may be called “minerals” in all), rats in the all groups were fed with the four types of feeds supplemented with 0.5% of chromium oxide as a non-absorbed marker for the minerals. The rats were bred at 25° C. in a manner of freely allowing to take feeds and water under a condition of 12 hours regular interval between of light and shade. After completion of experimental breeding, all rats were individually weighed to calculate the average of weight and further calculate the rate of increased weight for each group.
Two days before the end of the breeding test, rats were placed into a gauge for measuring metabolism to collect their excrement in two days. The resulting excrement was subjected to the measurement of the contents of cyclic tetrasaccharide, each mineral, and chromium. After the breeding test, the rats were anatomized in an anesthetized condition to take out their alimentary canals including jejunum, intestinum ileum, appendix and colon/rectum. After the resulting alimentary canals were weighed, their contents were also weighed and subjected to the measurement of the amount of cyclic tetrasaccharide, minerals and chromium. The rats, which had been taken out their alimentary canals, were dislocated at their cervical vertebrae and taken out their femurs from right legs. The resulting femurs were subjected to the measurement of the amount of ashes, calcium, magnesium and phosphorus. The following(s) explain the methods of quantitative analysis of cyclic tetrasaccharide and the methods of measurement of minerals and chromium.
Two grams of a feed was preciously weighed in a porcelain crucible, heated to carbonize, and heated at 600° C. to incinerate. After weighed, the resulting test samples were admixed with hydrochloric acid in a precious analysis grade (concentration of 20%, commercialized by Wako Pure Chemicals, Co., Ltd., Osaka, Japan) to give a final concentration of 1%. They were subjected to atomic absorption spectrometry (“Zeeman5100™”, commercialized by PerkinElmer); in the case of measurement of chromium, they were subjected to a flameless type one. In the case of measurement of phosphorus, they were subjected to usual molybdenum blue absorptiometry. On the other hand, 0.1 g of each of the contents of jejunum, intestinum ileum, appendix, colon/rectum, and excrement was subjected to wet-type incineration to prepare test samples similarly as in the above case of feed, and the test samples were quantified. The right femurs taken out from the anatomized rats were dried at 105° C. for 15 hours and measured as a dry weight. The resulting dried femurs were precisely weighed in a porcelain crucible, and incinerated similarly as in the case of the feed. The resultants were weighed and quantified for calcium, magnesium and phosphorus.

[2] = test system: reversed canal sac of intestinum ileum; experiment: Calcium absorption in reversed canal sac, intestinum ileum; format: cell-based, Wister rats
Method: (§1) Experiment 1 confirmed that cyclic tetrasaccharide promotes mineral absorption in alimentary canal of rat concretely in intestinum ileum or its upper alimentary canal. The following experiment was carried out in order to determine a part of alimentary canal, cyclic tetrasaccharide acts on to promote mineral absorption. Twenty heads of Wister rats (nine week aged male, commercialized by Charlesriver Corporation, Kanagawa, Japan) were bred for three days with a usual solid feed for rats. Under the anesthetization with ether, alimentary canal was taken out from each rat which had been bled from a jugular vein and treated by abdominal operation. Each alimentary canal was divided into jejunum, intestinum ileum and colon/rectum and washed with physiological saline to remove the content. The resulting jejunum specimen, intestinum ileum specimen or colon/rectum specimen was cut off to prepare each midsection sized with about 10 cm in length. The resulting midsection of each specimen was reversed using a glass rod and immersed in a physiological saline babbled with gas consisting of 95% oxygen and 5% carbon dioxide. The resultant was cut into pieces sized with 5 cm in length and each piece was tied with a suture thread at both ends to prepare a reversed canal sac, and injected with about 0.5 ml of an internal sac solution containing 30 mM Tris-HCl buffer (pH7.4), 125 mM sodium chloride, 4 mM potassium chloride, 10 mM glucose and 1.25 mM calcium chloride (dihydrate) with a syringe and weighed. The resulting sac was immersed in an external sac solution (being bubbled with the gas consisting of 95% oxygen and 5% carbon dioxide) containing 50 mM, 100 mM or 200 mM of the same cyclic tetrasaccharide to Experiment 1 in the above solution containing 30 mM Tris-HCl buffer (pH7.4), 125 mM sodium chloride, 4 mM potassium chloride, 10 mM glucose and 1.25 mM calcium chloride (dihydrate). At 15 or 30 minutes after the immersion, the reversed canal sac was taken out from the solution and washed with distilled water. The internal sac solution was collected from the resulting sac and admixed with distilled water to give a final volume of 25 ml. The resulting solution was subjected to a calorimetric measurement of calcium content using “CALCIUM TEST C WAKO™” (commercialized by Wako Pure Chemicals Corporation, Osaka, Japan). As a negative control, an external sac solution without saccharides. As a positive control, an external sac solution containing 200 mM maltitol, reported to have the effect on promoting mineral absorption though intestinal canal, instead of cyclic tetrasaccharide were prepared and carried out in the same manner. Speed of calcium absorption (nmol/min·cm^2) and its relative values defining the value of negative control as 100 were calculated.

[3] = test system: reversed canal sac of colon/rectum; experiment: Calcium absorption in reversed canal sac, colon/rectum; format: cell-based, Wister rats
Method: as §1

[4] = feed supplemented with 1% cyclic tetrasaccharide
[5] = feed supplemented with 2% cyclic tetrasaccharide
[6] = feed supplemented with 5% cyclic tetrasaccharide
[7] = 50 mM saccharide in external sac solution
[8] = 100 mM saccharide in external sac solution
[9] = 200 mM saccharide in external sac solution

## OC[C@H]1O[C@@H]2OC[C@H]3O[C@H](O[C@@H]4[C@@H](O)[C@@H](OC[C@H]5O[C@H](O[C@H]([C@H]2O)[C@@H]1O)[C@H](O)[C@@H](O)[C@@H]5O)O[C@H](CO)[C@H]4O)[C@H](O)[C@@H](O)[C@@H]3O [cyclic tetrasaccharide, cyclo{>6)-α-D-glucopyranosyl-(1>3)-α-D-glucopyranosyl-(1>6)-α-D-glucopyranosyl-(1>3)-α-D-glucopyranosyl-(1>}]
[1]; comparing with the control, 1%, 2%, 5% feeds
  amounts of dried bone weight, ash, calcium, magnesium and phosphorus: significantly increased
[1]; [4]
  Amount of ash: 0.64 * g/g dry femur
  Amount of calcium in femur: 217 * ^ mg/g dry femur
  Amount of magnesium in femur: 4.3 * mg/g dry femur
  Amount of phosphorus in femur: 115 * ^ mg/g dry femur
  Dry weight of femur: 0.68 * g
[1]; [5]
  Amount of ash: 0.65 * g/g dry femur
  Amount of calcium in femur: 225 * ^ mg/g dry femur
  Amount of magnesium in femur: 4.4 * mg/g dry femur
  Amount of phosphorus in femur: 116 * ^ mg/g dry femur
  Dry weight of femur: 0.71 * g
[1]; [6]
  Amount of ash: 0.66 * g/g dry femur
  Amount of calcium in femur: 240 * ^ mg/g dry femur
  Amount of magnesium in femur: 4.5 * mg/g dry femur
  Amount of phosphorus in femur: 118 * ^ mg/g dry femur
  Dry weight of femur: 0.71 * g
[2]; [7]
  Absorption speed of calcium in alimentary canal sac, Intestinum ileum: 33.6 *※ nmol/min · cm^2
  Relative value of calcium absorption speed (control = 100), Intestinum ileum: (124)
[2]; [8]
  Absorption speed of calcium in alimentary canal sac, Intestinum ileum: 46.0 *※ nmol/min · cm^2
  Relative value of calcium absorption speed (control = 100), Intestinum ileum: (167)
[2]; [9]
  Absorption speed of calcium in alimentary canal sac, Intestinum ileum: 52.9 *※ nmol/min · cm^2
  Relative value of calcium absorption speed (control = 100), Intestinum ileum: (195)
[2]; reversed sac
  promotion of calcium absorption in intestinum ileum: strongly promoted
[3]; [7]
  Absorption speed of calcium in alimentary canal sac, Colon/Rectum: 13.5 ※ nmol/min · cm^2
  Relative value of calcium absorption speed (control = 100), Colon/Rectum: (101)
[3]; [8]
  Absorption speed of calcium in alimentary canal sac, Colon/Rectum: 14.6 *※ nmol/min · cm^2
  Relative value of calcium absorption speed (control = 100), Colon/Rectum: (109)
[3]; [9]
  Absorption speed of calcium in alimentary canal sac, Colon/Rectum: 15.4 *※ nmol/min · cm^2
  Relative value of calcium absorption speed (control = 100), Colon/Rectum: (116)
[3]; reversed sac
  promotion of calcium absorption in colon/rectum: slightly
